Assay results reported in patent US20240208909A1, “SUBSTITUTED QUINOLINE DERIVATIVES HAVING SOS1 INHIBITION ACTIVITIES AND USES THEREOF” (Accutar Biotechnology Inc., priority 2022, published 2024).

Experiments:
K562 cells = experiment: Cell growth inhibition of K562 cells (CellTiter-Glo); format: cell-based; details: Homo sapiens, 120 h, 5 days
SOS1/KRAS-G12D = SOS1/KRAS-G12D (Homo sapiens (Human), UniProt Q07889); experiment: SOS1/KRAS-G12D binding inhibition assay (AlphaScreen); details: GST-SOS1 and 6*His KRAS-G12D, read-out: KrasG12D/SOS1 binding IC50
SOS1/KRAS-G12D, sequence (Q07889 564-1049 limits assumed): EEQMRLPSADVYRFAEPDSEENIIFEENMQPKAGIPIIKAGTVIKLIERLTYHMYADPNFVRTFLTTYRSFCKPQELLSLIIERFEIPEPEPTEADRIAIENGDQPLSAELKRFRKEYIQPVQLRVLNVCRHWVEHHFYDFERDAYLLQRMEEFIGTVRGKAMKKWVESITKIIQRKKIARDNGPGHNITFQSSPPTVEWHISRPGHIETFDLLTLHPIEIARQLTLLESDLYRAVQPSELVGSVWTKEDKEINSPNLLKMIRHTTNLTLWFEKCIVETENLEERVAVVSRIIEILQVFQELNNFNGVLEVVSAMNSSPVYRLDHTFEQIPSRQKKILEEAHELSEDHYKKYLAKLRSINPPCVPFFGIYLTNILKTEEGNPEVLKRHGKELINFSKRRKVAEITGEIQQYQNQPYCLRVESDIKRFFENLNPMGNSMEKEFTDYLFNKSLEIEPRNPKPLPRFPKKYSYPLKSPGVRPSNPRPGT
Method in brief: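 GST-SOS1 (5 nM) pre-incubated 30 min with His6-KRAS-G12D (50 nM) in HEPES pH 7.4, NaCl, DTT, MgCl2, Tween-20, BSA; compound in 2% DMSO then added for 30 min at 4° C. GSH donor and Ni-NTA acceptor AlphaScreen beads, 2 h at 4° C; background-corrected % inhibition versus DMSO, IC50 by variable-slope nonlinear regression.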

[1] = tested on: Phospho-ERK1/2 in DLD1 cells; experiment: Phospho-ERK1/2 expression inhibition in DLD1 cells; format: cell-based; details: Homo sapiens, DLD-1, 4 hours, read-out: DLD1 pERK IC50
Method in brief: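 DLD1 cells (15,000/well) were plated overnight, then exposed to compounds for 4 h at 37 °C. Cells were formaldehyde-fixed and methanol-permeabilized. Phospho-ERK1/2 was detected in-cell with rabbit anti-phospho-ERK1/2 and an IRDye 800CW secondary antibody, imaged on a LI-COR Odyssey.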

Compound	GI50 (K562 cells)	IC50 (SOS1/KRAS-G12D)	IC50 [1]
CC(=O)N1CCC(O)(c2ccc3nccc(N[C@H](C)c4cccc(C(F)F)c4F)c3c2)C1 (stereo partly drawn) [Compound 83, 1-(3-(4-(((R)-1-(3-(difluoromethyl)-2-fluorophenyl)ethyl)amino)quinolin-6-yl)-3-hydroxypyrrolidin-1-yl)ethan-1-one]	≤ 100 nM	≤ 10 nM	150 to 500 nM
CC(=O)N1CCC(F)(c2ccc3nccc(NC(C)c4cccc(C(F)F)c4F)c3c2)CC1 (stereo not drawn) [Compound 84, 1-(4-(4-((1-(3-(difluoromethyl)-2-fluorophenyl)ethyl)amino)quinolin-6-yl)-4-fluoropiperidin-1-yl)ethan-1-one]	≤ 100 nM	≤ 10 nM	150 to 500 nM
CC(=O)N1CC[C@](F)(c2ccc3nccc(N[C@H](C)c4cccc(C(F)F)c4F)c3c2)C1 [Compound 85, 1-((S)-3-(4-(((R)-1-(3-(difluoromethyl)-2-fluorophenyl)ethyl)amino)quinolin-6-yl)-3-fluoropyrrolidin-1-yl)ethan-1-one]	100 to 500 nM	≤ 10 nM	> 500 nM
CO[C@@]1(c2ccc3nccc(N[C@H](C)c4cccc(C#N)c4C)c3c2)CCN(C(C)=O)C1 [Compound 87, 3-((R)-1-((6-((R)-1-acetyl-3-methoxypyrrolidin-3-yl)quinolin-4-yl)amino)ethyl)-2-methylbenzonitrile]	> 500 nM	> 100 nM	> 500 nM
CO[C@]1(c2ccc3nccc(N[C@H](C)c4cccc(C#N)c4C)c3c2)CCN(C(C)=O)C1 [Compound 88, 3-((R)-1-((6-((S)-1-acetyl-3-methoxypyrrolidin-3-yl)quinolin-4-yl)amino)ethyl)-2-methylbenzonitrile]	100 to 500 nM	10 to 100 nM	≤ 150 nM
COC(=O)N1CC[C@](OC)(c2ccc3nccc(N[C@H](C)c4cccc(C(F)F)c4F)c3c2)C1 [Compound 89, methyl (S)-3-(4-(((R)-1-(3-(difluoromethyl)-2-fluorophenyl)ethyl)amino)quinolin-6-yl)-3-methoxypyrrolidine-1-carboxylate]	≤ 100 nM	≤ 10 nM	> 500 nM
COC(=O)N1CC[C@@](OC)(c2ccc3nccc(N[C@H](C)c4cccc(C(F)F)c4F)c3c2)C1 [Compound 90, methyl (R)-3-(4-(((R)-1-(3-(difluoromethyl)-2-fluorophenyl)ethyl)amino)quinolin-6-yl)-3-methoxypyrrolidine-1-carboxylate]	100 to 500 nM	10 to 100 nM	> 500 nM
CO[C@@]1(c2ccc3nccc(N[C@H](C)c4cccc(C(F)F)c4F)c3c2)CCN(C(=O)C(C)C)C1 [Compound 91, 1-((R)-3-(4-(((R)-1-(3-(difluoromethyl)-2-fluorophenyl)ethyl)amino)quinolin-6-yl)-3-methoxypyrrolidin-1-yl)-2-methylpropan-1-one]	100 to 500 nM	≤ 10 nM	> 500 nM
CO[C@]1(c2ccc3nccc(N[C@H](C)c4cccc(C(F)F)c4F)c3c2)CCN(C(=O)C(C)C)C1 [Compound 92, 1-((S)-3-(4-(((R)-1-(3-(difluoromethyl)-2-fluorophenyl)ethyl)amino)quinolin-6-yl)-3-methoxypyrrolidin-1-yl)-2-methylpropan-1-one]	≤ 100 nM	≤ 10 nM	≤ 150 nM
CO[C@@]1(c2ccc3nccc(N[C@H](C)c4cccc(C(F)F)c4F)c3c2)CCN(C(=O)C2CC2)C1 [Compound 95, cyclopropyl((R)-3-(4-(((R)-1-(3-(difluoromethyl)-2-fluorophenyl)ethyl)amino)quinolin-6-yl)-3-methoxypyrrolidin-1-yl)methanone]	100 to 500 nM	≤ 10 nM	> 500 nM
CO[C@]1(c2ccc3nccc(N[C@H](C)c4cccc(C(F)F)c4F)c3c2)CCN(C(=O)C2CC2)C1 [Compound 96, cyclopropyl((S)-3-(4-(((R)-1-(3-(difluoromethyl)-2-fluorophenyl)ethyl)amino)quinolin-6-yl)-3-methoxypyrrolidin-1-yl)methanone]	≤ 100 nM	≤ 10 nM	150 to 500 nM
CC(=O)N1CC=C(c2ccc3nccc(N[C@H](C)c4cccc(C(F)F)c4F)c3c2)C1 [Compound 97, (R)-1-(3-(4-((1-(3-(difluoromethyl)-2-fluorophenyl)ethyl)amino)quinolin-6-yl)-2,5-dihydro-1H-pyrrol-1-yl)ethan-1-one]	100 to 500 nM	10 to 100 nM	> 500 nM
CO[C@]1(c2ccc3nccc(N[C@H](C)c4cccc(C(F)F)c4F)c3c2)CCN(C(=O)N(C)C)C1 [Compound 98, (S)-3-(4-(((R)-1-(3-(difluoromethyl)-2-fluorophenyl)ethyl)amino)quinolin-6-yl)-3-methoxy-N,N-dimethylpyrrolidine-1-carboxamide]	100 to 500 nM	≤ 10 nM	> 500 nM
CO[C@@]1(c2ccc3nccc(N[C@H](C)c4cccc(C(F)F)c4F)c3c2)CCN(C(=O)N(C)C)C1 [Compound 99, (R)-3-(4-(((R)-1-(3-(difluoromethyl)-2-fluorophenyl)ethyl)amino)quinolin-6-yl)-3-methoxy-N,N-dimethylpyrrolidine-1-carboxamide]	≤ 100 nM	≤ 10 nM	150 to 500 nM
COC(=O)N1CCC(OC)(c2ccc3nccc(N[C@H](C)c4cccc(C(F)F)c4F)c3c2)CC1 [Compound 100, methyl (R)-4-(4-((1-(3-(difluoromethyl)-2-fluorophenyl)ethyl)amino)quinolin-6-yl)-4-methoxypiperidine-1-carboxylate]	100 to 500 nM	≤ 10 nM	150 to 500 nM
CNC(=O)N1CC[C@@](OC)(c2ccc3nccc(N[C@H](C)c4cccc(C(F)F)c4F)c3c2)C1 [Compound 101, (R)-3-(4-(((R)-1-(3-(difluoromethyl)-2-fluorophenyl)ethyl)amino)quinolin-6-yl)-3-methoxy-N-methylpyrrolidine-1-carboxamide]	100 to 500 nM	≤ 10 nM	> 500 nM
CNC(=O)N1CC[C@](OC)(c2ccc3nccc(N[C@H](C)c4cccc(C(F)F)c4F)c3c2)C1 [Compound 102, (S)-3-(4-(((R)-1-(3-(difluoromethyl)-2-fluorophenyl)ethyl)amino)quinolin-6-yl)-3-methoxy-N-methylpyrrolidine-1-carboxamide]	≤ 100 nM	≤ 10 nM	≤ 150 nM
